We go through three compounds from article PMC6251858 (Acta Pharmaceutica Sinica. B, 2018).

What all share (format): cell-based
One assay relates to Coxsackie virus B3. Briefly: in vitro inhibition of Coxsackie virus B3 replication. The note with it: for SI against Coxsackie virus B3 replication: selectivity index, preliminary in vitro assay.
The subject of assay [1] is influenza virus A/Hanfang/359/95 (H3N2). Briefly: in vitro antiviral assay against influenza virus A/Hanfang/359/95. The note with it: selectivity index, preliminary in vitro assay.
The subject of assay [2] is herpes simplex virus 1 (HSV-1). Briefly: in vitro antiviral assay against herpes simplex virus 1.

Regarding `Cc1cc(CCCOc2c(C)cc(-c3noc(C(F)(F)F)n3)cc2C)on1` [Pleconaril], in the assay with Coxsackie virus B3 (Enterovirus B, B3, read-out: IC50 against Coxsackie virus B3 replication), the IC50 amounted to 410 nM. Besides, in the assay on Coxsackie virus B3, the “SI against Coxsackie virus B3 replication” value was 243.9.
Regarding `NC(=O)c1ncn([C@@H]2O[C@H](CO)[C@@H](O)[C@H]2O)n1` [RBV], in the assay on Coxsackie virus B3, the “SI against Coxsackie virus B3 replication” value was 9.0. Moreover, the “SI against influenza virus A/Hanfang/359/95 (H3N2)” value in assay [1] is given as 1200.
For `Nc1nc2c(ncn2COCCO)c(=O)[nH]1` [acyclovir], in assay [2] (Human alphaherpesvirus 1, read-out: IC50 against herpes simplex virus 1 (HSV-1)), the IC50 was determined as 710 nM. Further, the “SI against herpes simplex virus 1 (HSV-1)” value in assay [2] (selectivity index, preliminary in vitro assay) is reported as 140.9.

As a reminder, the IC50 is the concentration that gives 50% inhibition.
